Measurements as given in PubChem BioAssay (NCI).
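GI50 marks 50% less growth. TGI: concentration producing complete growth inhibition.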

Key:
Experiment in all cases: NCI anticancer screen, dose series, 384-well format
NCI/ADR-RES ovarian = tested on: NCI/ADR-RES ovarian
TK-10 renal = tested on: TK-10 renal
ACHN renal = tested on: ACHN renal
SK-OV-3 ovarian = tested on: SK-OV-3 ovarian
DU-145 prostate = tested on: DU-145 prostate
IGROV1 ovarian = tested on: IGROV1 ovarian
HT29 colon = tested on: HT29 colon
NCI-H460 NSCLC = tested on: NCI-H460 NSCLC
SF-539 CNS = tested on: SF-539 CNS
UACC-257 melanoma = tested on: UACC-257 melanoma
RPMI-8226 leukemia = tested on: RPMI-8226 leukemia
SR leukemia = tested on: SR leukemia
NCI-H322M lung = tested on: NCI-H322M lung
KM12 colon = tested on: KM12 colon
MDA-MB-231 breast = tested on: MDA-MB-231 breast
SK-MEL-28 melanoma = tested on: SK-MEL-28 melanoma
HOP-62 NSCLC = tested on: HOP-62 NSCLC
HS 578T breast = tested on: HS 578T breast
A549 NSCLC = tested on: A549 NSCLC
MDA-MB-468 breast = tested on: MDA-MB-468 breast
HCT-116 colon = tested on: HCT-116 colon
SNB-75 CNS = tested on: SNB-75 CNS
OVCAR-4 ovarian = tested on: OVCAR-4 ovarian
T-47D breast = tested on: T-47D breast
SK-MEL-5 melanoma = tested on: SK-MEL-5 melanoma
HCT-15 colon = tested on: HCT-15 colon
MOLT-4 leukemia = tested on: MOLT-4 leukemia
RXF 393 renal = tested on: RXF 393 renal
MDA-MB-435 melanoma = tested on: MDA-MB-435 melanoma
A498 renal = tested on: A498 renal
HL-60(TB) leukemia = tested on: HL-60(TB) leukemia
CAKI-1 renal = tested on: CAKI-1 renal
M14 melanoma = tested on: M14 melanoma
OVCAR-3 ovarian = tested on: OVCAR-3 ovarian
NCI-H226 lung = tested on: NCI-H226 lung
COLO 205 colon = tested on: COLO 205 colon
NCI-H522 lung = tested on: NCI-H522 lung
NCI-H23 lung = tested on: NCI-H23 lung
LOX IMVI melanoma = tested on: LOX IMVI melanoma
MCF7 breast = tested on: MCF7 breast
EKVX NSCLC = tested on: EKVX NSCLC
BT-549 breast = tested on: BT-549 breast
OVCAR-5 ovarian = tested on: OVCAR-5 ovarian
HOP-92 NSCLC = tested on: HOP-92 NSCLC
SF-268 CNS = tested on: SF-268 CNS
HCC-2998 colon = tested on: HCC-2998 colon
SNB-19 CNS = tested on: SNB-19 CNS
PC-3 prostate = tested on: PC-3 prostate
U251 glioblastoma = tested on: U251 glioblastoma
UACC-62 melanoma = tested on: UACC-62 melanoma
OVCAR-8 ovarian = tested on: OVCAR-8 ovarian
SF-295 CNS = tested on: SF-295 CNS
SN12C renal = tested on: SN12C renal
MALME-3M melanoma = tested on: MALME-3M melanoma
786-0 renal = tested on: 786-0 renal
K-562 leukemia = tested on: K-562 leukemia
UO-31 renal = tested on: UO-31 renal
SW-620 colon = tested on: SW-620 colon
SK-MEL-2 melanoma = tested on: SK-MEL-2 melanoma

## NC(=O)c1ccc(N(C(N)=O)c2c(F)cccc2F)nc1-c1ccc(F)cc1F
NCI/ADR-RES ovarian
  GI50: > 100 µM
  TGI: > 100 µM
TK-10 renal
  GI50: > 100000 nM
  TGI: > 100 µM
ACHN renal
  GI50: > 100 µM
  TGI: > 100 µM
SK-OV-3 ovarian
  GI50: > 100 µM
  TGI: > 100 µM
DU-145 prostate
  GI50: > 100000 nM
  TGI: > 100 µM
IGROV1 ovarian
  GI50: > 100000 nM
  TGI: > 100 µM
HT29 colon
  GI50: > 100 µM
  TGI: > 100 µM
NCI-H460 NSCLC
  GI50: > 100000 nM
  TGI: > 100 µM
SF-539 CNS
  GI50: > 100000 nM
  TGI: > 100 µM
UACC-257 melanoma
  GI50: > 100 µM
  TGI: > 100 µM
RPMI-8226 leukemia
  GI50: > 100 µM
  TGI: > 100 µM
SR leukemia
  GI50: 98.2 µM
  TGI: > 100 µM
NCI-H322M lung
  GI50: > 100000 nM
  TGI: > 100 µM
KM12 colon
  GI50: > 100000 nM
  TGI: > 100 µM
MDA-MB-231 breast
  GI50: > 100000 nM
  TGI: > 100 µM
SK-MEL-28 melanoma
  GI50: > 100 µM
  TGI: > 100000 nM
HOP-62 NSCLC
  GI50: > 100000 nM
  TGI: > 100 µM
HS 578T breast
  GI50: > 100 µM
  TGI: > 100 µM
A549 NSCLC
  GI50: > 100000 nM
  TGI: > 100 µM
MDA-MB-468 breast
  GI50: > 100000 nM
  TGI: > 100 µM
HCT-116 colon
  GI50: > 100000 nM
  TGI: > 100000 nM
SNB-75 CNS
  GI50: > 100000 nM
  TGI: > 100 µM
OVCAR-4 ovarian
  GI50: > 100 µM
  TGI: > 100 µM
T-47D breast
  GI50: > 100 µM
  TGI: > 100 µM
SK-MEL-5 melanoma
  GI50: > 100 µM
  TGI: > 100 µM
HCT-15 colon
  GI50: > 100 µM
  TGI: > 100 µM
MOLT-4 leukemia
  GI50: > 100 µM
  TGI: > 100 µM
RXF 393 renal
  GI50: > 100000 nM
  TGI: > 100 µM
MDA-MB-435 melanoma
  GI50: > 100 µM
  TGI: > 100 µM
A498 renal
  GI50: > 100000 nM
  TGI: > 100 µM
HL-60(TB) leukemia
  GI50: > 100 µM
  TGI: > 100 µM
CAKI-1 renal
  GI50: > 100000 nM
  TGI: > 100 µM
M14 melanoma
  GI50: > 100 µM
  TGI: > 100000 nM
OVCAR-3 ovarian
  GI50: > 100 µM
  TGI: > 100 µM
NCI-H226 lung
  GI50: > 100000 nM
  TGI: > 100 µM
COLO 205 colon
  GI50: > 100 µM
  TGI: > 100000 nM
NCI-H522 lung
  GI50: > 100 µM
  TGI: > 100 µM
NCI-H23 lung
  GI50: > 100 µM
  TGI: > 100000 nM
LOX IMVI melanoma
  GI50: > 100 µM
  TGI: > 100 µM
MCF7 breast
  GI50: > 100 µM
  TGI: > 100 µM
EKVX NSCLC
  GI50: > 100000 nM
  TGI: > 100 µM
BT-549 breast
  GI50: > 100 µM
  TGI: > 100 µM
OVCAR-5 ovarian
  GI50: > 100 µM
  TGI: > 100 µM
HOP-92 NSCLC
  GI50: > 100000 nM
  TGI: > 100000 nM
SF-268 CNS
  GI50: > 100 µM
  TGI: > 100 µM
HCC-2998 colon
  GI50: > 100 µM
  TGI: > 100 µM
SNB-19 CNS
  GI50: > 100 µM
  TGI: > 100 µM
PC-3 prostate
  GI50: > 100 µM
  TGI: > 100 µM
U251 glioblastoma
  GI50: > 100000 nM
  TGI: > 100 µM
UACC-62 melanoma
  GI50: > 100 µM
  TGI: > 100000 nM
OVCAR-8 ovarian
  GI50: > 100 µM
  TGI: > 100 µM
SF-295 CNS
  GI50: > 100 µM
  TGI: > 100 µM
SN12C renal
  GI50: > 100000 nM
  TGI: > 100 µM
MALME-3M melanoma
  GI50: > 100 µM
  TGI: > 100 µM

## O=C(NOCCO)c1cc(CN2OCCCC2=O)c(F)c(F)c1Nc1ccc(I)cc1F
TK-10 renal
  GI50: 198 nM
  TGI: 44.7 µM
ACHN renal
  GI50: 3.48 µM
  TGI: > 100 µM
SK-OV-3 ovarian
  GI50: 8.12 µM
  TGI: 55.4 µM
DU-145 prostate
  GI50: 1410 nM
  TGI: > 100 µM
IGROV1 ovarian
  GI50: 17.9 nM
  TGI: 7.87 µM
786-0 renal
  GI50: 11.6 µM
  TGI: 42 µM
HT29 colon
  GI50: < 0.01 µM
  TGI: 20.8 µM
NCI-H460 NSCLC
  GI50: 23.6 nM
  TGI: 51.9 µM
SF-539 CNS
  GI50: 554 nM
  TGI: 4.03 µM
UACC-257 melanoma
  GI50: < 0.01 µM
  TGI: < 0.01 µM
SR leukemia
  GI50: 2.12 µM
  TGI: 11.1 µM
NCI-H322M lung
  GI50: 73.7 nM
  TGI: 4.19 µM
KM12 colon
  GI50: 1710 nM
  TGI: > 100 µM
K-562 leukemia
  GI50: 27.6 nM
  TGI: 17 µM
MDA-MB-231 breast
  GI50: 60.1 nM
  TGI: > 100 µM
SK-MEL-28 melanoma
  GI50: < 0.01 µM
  TGI: 11.5 nM
HOP-62 NSCLC
  GI50: 25.1 nM
  TGI: 64.6 µM
HS 578T breast
  GI50: 3.48 µM
  TGI: 23.8 µM
A549 NSCLC
  GI50: 53.5 nM
  TGI: 10.9 µM
MDA-MB-468 breast
  GI50: 2560 nM
  TGI: 13.8 µM
HCT-116 colon
  GI50: 18 nM
  TGI: 1280 nM
SNB-75 CNS
  GI50: 2850 nM
  TGI: 17.7 µM
UO-31 renal
  GI50: 133 nM
  TGI: 2130 nM
OVCAR-4 ovarian
  GI50: 17.4 µM
  TGI: > 100 µM
T-47D breast
  GI50: 21.5 µM
  TGI: 65.2 µM
SK-MEL-5 melanoma
  GI50: < 0.01 µM
  TGI: 17.5 µM
HCT-15 colon
  GI50: 5.87 µM
  TGI: > 100 µM
MOLT-4 leukemia
  GI50: 7.81 µM
  TGI: 20.6 µM
RXF 393 renal
  GI50: 498 nM
  TGI: 7.61 µM
MDA-MB-435 melanoma
  GI50: < 0.01 µM
  TGI: > 100 µM
A498 renal
  GI50: 236 nM
  TGI: 23.4 µM
HL-60(TB) leukemia
  GI50: < 0.01 µM
  TGI: 10.6 µM
CAKI-1 renal
  GI50: 59 nM
  TGI: 24.9 µM
M14 melanoma
  GI50: < 0.01 µM
  TGI: 11.9 nM
OVCAR-3 ovarian
  GI50: 10.2 µM
  TGI: 39.6 µM
NCI-H226 lung
  GI50: 42.1 nM
  TGI: 7.38 µM
COLO 205 colon
  GI50: < 0.01 µM
  TGI: 27 nM
NCI-H522 lung
  GI50: 5.97 µM
  TGI: 30.2 µM
SW-620 colon
  GI50: < 10 nM
  TGI: > 100 µM
NCI-H23 lung
  GI50: < 0.01 µM
  TGI: 371 nM
MCF7 breast
  GI50: 5.12 µM
  TGI: 35.6 µM
EKVX NSCLC
  GI50: 201 nM
  TGI: 14.9 µM
BT-549 breast
  GI50: 6.65 µM
  TGI: 72.1 µM
OVCAR-5 ovarian
  GI50: < 0.01 µM
  TGI: > 100 µM
HOP-92 NSCLC
  GI50: 179 nM
  TGI: 1720 nM
SK-MEL-2 melanoma
  GI50: < 10 nM
  TGI: 19 nM
SF-268 CNS
  GI50: 24.8 µM
  TGI: > 100 µM
SNB-19 CNS
  GI50: 12.7 µM
  TGI: 62.8 µM
PC-3 prostate
  GI50: 34.4 µM
  TGI: > 100 µM
U251 glioblastoma
  GI50: 209 nM
  TGI: 17.8 µM
UACC-62 melanoma
  GI50: < 0.01 µM
  TGI: 86.9 nM
OVCAR-8 ovarian
  GI50: 4.6 µM
  TGI: 25.5 µM
SF-295 CNS
  GI50: 11.2 µM
  TGI: 41.1 µM
SN12C renal
  GI50: 1280 nM
  TGI: > 100 µM
MALME-3M melanoma
  GI50: < 0.01 µM
  TGI: < 0.01 µM
